Among the data in patent US11725000B2, “Apoptosis inhibitors” (National Institute of Biological Sciences, Beijing, priority 2017, dated 2023) are EC50 values, retold here.

Structures are written as SMILES.

In one experiment the test system is U2OS_Bim cells. Kind of experiment: Apoptosis inhibition assay (Bim-induced apoptosis, cell viability by ATP level). It counts as cell-based. The settings on record: U2OS_Bim cells; estimated (*Est.) / preliminary results; numbering of Tables 4a/4b; read-out: EC50. A digest of the protocol:
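Apoptosis was triggered by doxycycline (0.1 μg/mL) induction of Bim, one hour after compound addition to U2OS_Bim cells. Survival was measured after 24 h from cellular ATP (CellTiter-Glo), relative to DMSO, with zVAD at 20 μM as rescue control. Data are duplicate means, some estimated from preliminary results.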
Take `Cc1cc(-c2cc(F)c(=O)n(Cc3ccc4c(c3)OCO4)c2)nc(S(=O)(=O)CCC(OCC2CCCC2)c2ccccc2)n1` (centres unmarked) [Compound 412]: the EC50 (commonly the concentration giving half of the maximal effect) was 1 to 1000 nM.
On the same count and under the same terms, as for `Cc1cc(-c2cc(F)c(=O)n(Cc3ccc4c(c3)N(C)CO4)c2)nc(S(=O)(=O)CCC(OCc2ccccc2F)c2ccccc2)n1` (centres unmarked) [Compound 354], the figure is 1 to 1000 nM.
Still for that read-out and setting: the figure for `Cc1cc(-c2cc(F)c(=O)n(Cc3ccc4c(c3)N(C)CCO4)c2)nc(S(=O)(=O)CCC(OCc2ccccc2F)c2ccccc2)n1` (centres unmarked) [Compound 356] is 1 to 1000 nM; for `Cc1cc(-c2cc(F)c(=O)n(Cc3ccc4c(c3)OCO4)c2)nc(S(=O)(=O)CCC(OCC2CCOC2)c2ccccc2)n1` (centres unmarked) [Compound 414] it is 1 to 1000 nM.
Regarding `COc1ccc(Cn2cc(-c3cc(C(F)F)nc(S(=O)(=O)CCCOCc4ccccc4)n3)ccc2=O)cc1OC` [Compound 272, 5-(2-((3-(benzyloxy)propyl)sulfonyl)-6-(difluoromethyl)pyrimidin-4-yl)-1-(3,4-dimethoxybenzyl)pyridin-2 (1H)-one], the EC50 is 1 to 1000 nM.
Regarding `Cc1cc(-c2cc(F)c(=O)n(Cc3ccc4nnn(C)c4c3)c2)nc(S(=O)(=O)CCCn2c(=O)oc3ccccc32)n1` [Compound 367], the EC50 was 1 to 1000 nM.

Still in this experiment, the particulars now being: U2OS_Bim cells; estimated based on preliminary results; numbering of Tables 4a/4b; read-out: EC50.
For the compound `CNc1cc(Cn2cc(-c3cc(C(F)(F)F)nc([S+](C)[O-])n3)ccc2=O)ccc1OC` (centres unmarked) [Compound 239], the EC50 is under 10000 nM.
The same measure, in the same setting: as for `COc1ccc(Cn2cc(-c3cc(C(F)(F)F)nc(S(=O)(=O)CN4CCCCC4)n3)ccc2=O)cc1OC` [Compound 196], the figure is under 10000 nM; as for `COc1ccc(Cn2cc(-c3cc(C(F)(F)F)nc(S(=O)(=O)Cc4ccccn4)n3)ccc2=O)cc1OC` [Compound 189], under 10000 nM.
Still for that read-out and setting: the figure for `COc1ccc(Cn2cc(-c3cc(-c4cnco4)nc([S+](C)[O-])n3)ccc2=O)cc1OC` (centres unmarked) [Compound 214] is under 10000 nM.
The same measure, in the same setting: as for `COc1ccc(Cn2cc(-c3cc(-c4ccco4)nc([S+](C)[O-])n3)ccc2=O)cc1OC` (centres unmarked) [Compound 207], the figure is under 10000 nM.
Consider `COc1ccc(Cn2cc(-c3cc(-n4cccc4)nc([S+](C)[O-])n3)ccc2=O)cc1OC` (centres unmarked) [Compound 218], for which the EC50 was under 10000 nM.
Same read-out and setting: as for `COc1ccc(Cn2cc(-c3cc(C(F)(F)F)nc(S(=O)(=O)Cc4ccncc4)n3)ccc2=O)cc1OC` [Compound 190], the figure is under 10000 nM; as for `CS(=O)(=O)c1nc(-c2ccc(=O)n(Cc3ccc4scnc4c3)c2)cc(C(F)(F)F)n1` [Compound 226], under 10000 nM; as for `C[S+]([O-])c1nc(-c2ccc(=O)n(Cc3ccc4c(c3)OCCO4)c2)cc(C(F)(F)F)n1` (centres unmarked) [Compound 231], under 10000 nM.
On the same count and under the same terms, as for `CS(=O)(=O)c1nc(-c2ccc(=O)n(Cc3ccc4cnccc4c3)c2)cc(C(F)(F)F)n1` [Compound 248], the figure is under 10000 nM; as for `CCC(F)(F)c1cc(-c2ccc(=O)n(Cc3ccc(OC)c(OC)c3)c2)nc(S(C)(=O)=O)n1` [Compound 270, 5-(6-(1,1-difluoropropyl)-2-(methylsulfonyl)pyrimidin-4-yl)-1-(3,4-dimethoxybenzyl)pyridin-2 (1H)-one], under 10000 nM; as for `C[S+]([O-])c1nc(-c2ccc(=O)n(Cc3ccc4[nH]cnc4c3)c2)cc(C(F)(F)F)n1` (centres unmarked) [Compound 229], under 10000 nM.

The same experiment, now with this note: U2OS_Bim cells; means of duplicates; numbering of Tables 4a/4b; read-out: EC50.
Regarding `CS(=O)(=O)c1nc(-c2ccc(=O)n(Cc3ccc(OC(F)(F)F)cc3)c2)cc(C(F)(F)F)n1` [Compound 117, 5-(2-(methylsulfonyl)-6-(trifluoromethyl)pyrimidin-4-yl)-1-(4-(trifluoromethoxy)benzyl)pyridin-2 (1H)-one], the EC50 was 1000 to 20000 nM.
Consider `CS(=O)(=O)c1nc(-c2ccc(C(=O)O)cc2)cc(C(F)(F)F)n1` [Compound 64, 4-(2-(methylsulfonyl)-6-(trifluoromethyl)pyrimidin-4-yl)benzoic acid], for which the EC50 is under 100000 nM.
As for `COc1ccc(Cn2cccc2-c2cc(C(F)(F)F)nc(S(C)(=O)=O)n2)cc1OC` [Compound 85, 4-(1-(3,4-dimethoxybenzyl)-1H-pyrrol-2-yl)-2-(methylsulfonyl)-6-(trifluoromethyl)pyrimidine], the EC50 was in the range of 1000 to 10000 nM.
`C#CCOc1cc(Cn2cc(-c3cc(C)nc(S(=O)(=O)CCC(OCc4ccccc4F)c4ccccc4)n3)cc(F)c2=O)ccc1OC` (centres unmarked) [Compound 332, 3-fluoro-5-(2-((3-((2-fluorobenzyl)oxy)-3-phenylpropyl)sulfonyl)-6-methylpyrimidin-4-yl)-1-(4-methoxy-3-(prop-2-yn-1-yloxy)benzyl)pyridin-2 (1H)-one]: the EC50 fell in the range of 1 to 1000 nM.
On the same count and under the same terms, the figure for `COc1ccc(Cn2cc(-c3cc(C(C)=O)nc(S(C)(=O)=O)n3)ccc2=O)cc1OC` [Compound 163, 5-(6-acetyl-2-(methylsulfonyl)pyrimidin-4-yl)-1-(3,4-dimethoxybenzyl)pyridin-2 (1H)-one] is 1 to 1000 nM.
Consider `COc1ccc(Cn2cc(-c3cc(C(F)(F)F)nc([S+](C)[O-])n3)ccc2=O)cc1` (centres unmarked) [Compound 111, 1-(4-Methoxybenzyl)-5-(2-(methylsulfinyl)-6-(trifluoromethyl)pyrimidin-4-yl)pyridin-2 (1H)-one], for which the EC50 lay within 1 to 1000 nM.
Still for that read-out and setting: the figure for `COc1ccc(Cn2cc(-c3cc(C(F)F)nc(S(=O)(=O)CCC(OCc4ccccc4)c4ccccc4)n3)ccc2=O)cc1OC` (centres unmarked) [Compound 278, 5-(2-((3-(benzyloxy)-3-phenylpropyl)sulfonyl)-6-(difluoromethyl)pyrimidin-4-yl)-1-(3,4-dimethoxybenzyl)pyridin-2 (1H)-one] is 1 to 1000 nM; for `COc1ccc(Cn2cc(-c3cc(C(F)(F)F)nc(S(=O)(=O)CCCC(=O)N4CCOCC4)n3)ccc2=O)cc1OC` [Compound 156, 1-(3,4-dimethoxybenzyl)-5-(2-((4-morpholino-4-oxobutyl)sulfonyl)-6-(trifluoromethyl)pyrimidin-4-yl)pyridin-2 (1H)-one] it is 1 to 1000 nM.
The same measure, in the same setting: the figure for `CN(C)c1cc(-c2cccs2)nc([S+](C)[O-])n1` (centres unmarked) [Compound 42, N,N-dimethyl-2-(methylsulfinyl)-6-(thiophen-2-yl)pyrimidin-4-amine] is under 100000 nM.
For the compound `COc1ccc(Cn2cc(-c3cc(C)nc(S(=O)(=O)CC(F)(F)F)n3)ccc2=O)cc1OC` [Compound 166, 1-(3,4-dimethoxybenzyl)-5-(6-methyl-2-((2,2,2-trifluoroethyl)sulfonyl)pyrimidin-4-yl)pyridin-2 (1H)-one], the EC50 lay in the range of 1000 to 10000 nM.
Take `CS(=O)(=O)c1nc(-c2cccs2)cc(-c2cccs2)n1` [Compound 37, 2-(methylsulfonyl)-4,6-di(thiophen-2-yl)pyrimidine]: the EC50 fell in the range of 1000 to 10000 nM.
Still for that read-out and setting: as for `CCCCCS(=O)(=O)c1nc(-c2ccc(=O)n(Cc3ccc(OC)c(OC)c3)c2)cc(C(F)(F)F)n1` [Compound 147, 1-(3,4-dimethoxybenzyl)-5-(2-(pentylsulfonyl)-6-(trifluoromethyl)pyrimidin-4-yl)pyridin-2 (1H)-one], the figure is 1 to 1000 nM.
As for `CS(=O)(=O)c1nc(-c2ccc(=O)n(CCN=[N+]=[N-])c2)cc(C(F)(F)F)n1` [Compound 102, 1-(2-azidoethyl)-5-(2-(methylsulfonyl)-6-(trifluoromethyl)pyrimidin-4-yl) pyridin-2 (1H)-one], the EC50 was 1000 to 10000 nM.
Still for that read-out and setting: the figure for `COc1ccc(Cn2cc(-c3cc(C)nc([S+]([O-])CCC(C)OCc4ccccc4F)n3)cc(F)c2=O)cc1F` (centres unmarked) [Compound 304, 3-fluoro-1-(3-fluoro-4-methoxybenzyl)-5-(2-((3-((2-fluorobenzyl)oxy)butyl)sulfinyl)-6-methylpyrimidin-4-yl)pyridin-2 (1H)-one] is under 100000 nM; for `COCCS(=O)(=O)c1nc(-c2ccc(=O)n(Cc3ccc(OC)c(OC)c3)c2)cc(C(F)(F)F)n1` [Compound 143] it is 1 to 1000 nM.
The same measure, in the same setting: the figure for `COCCCS(=O)(=O)c1nc(-c2ccc(=O)n(Cc3ccc(OC)c(OC)c3)c2)cc(C(F)(F)F)n1` [Compound 144, 1-(3,4-dimethoxybenzyl)-5-(2-((3-methoxypropyl)sulfonyl)-6-(trifluoromethyl)pyrimidin-4-yl)pyridin-2 (1H)-one] is 1 to 1000 nM; for `CS(=O)(=O)c1nc(-c2cccc3ccccc23)cc(C(F)(F)F)n1` [Compound 76, 2-(methylsulfonyl)-4-(naphthalen-1-yl)-6-(trifluoromethyl)pyrimidine] it is 1000 to 20000 nM; for `CS(=O)(=O)c1nc(-c2ccccc2F)cc(C(F)(F)F)n1` [Compound 43, 4-(2-fluorophenyl)-2-(methylsulfonyl)-6-(trifluoromethyl)pyrimidine] it is 1000 to 20000 nM.
On to `CS(=O)(=O)c1nc(-c2cccc(O)c2)cc(C(F)(F)F)n1` [Compound 50, 3-(2-(methylsulfonyl)-6-(trifluoromethyl)pyrimidin-4-yl)phenol], for which the EC50 is under 100000 nM.
For `C#CCOc1cccc(-c2cc(C(F)(F)F)nc(S(C)(=O)=O)n2)c1` [Compound 71, 2-(methylsulfonyl)-4-(3-(prop-2-yn-1-yloxy)phenyl)-6-(trifluoromethyl) pyrimidine], the EC50 is under 100000 nM.
Still for that read-out and setting: as for `CS(=O)(=O)c1nc(-c2ccc(=O)n(Cc3cccc4ccccc34)c2)cc(C(F)(F)F)n1` [Compound 133, 5-(2-(methylsulfonyl)-6-(trifluoromethyl)pyrimidin-4-yl)-1-(naphthalen-1-ylmethyl)pyridin-2 (1H)-one], the figure is 1000 to 10000 nM; as for `C=CS(=O)(=O)c1nc(-c2ccc(=O)n(Cc3ccc(OC)c(OC)c3)c2)cc(C(F)(F)F)n1` [Compound 142, 1-(3,4-dimethoxybenzyl)-5-(6-(trifluoromethyl)-2-(vinylsulfonyl)pyrimidin-4-yl)pyridin-2 (1H)-one], 1000 to 10000 nM.
With `COc1ccc(Cn2cc(-c3cc(C(F)F)nc(S(C)(=O)=O)n3)ccc2=O)cc1C(F)(F)F` [Compound 169, 5-(6-(difluoromethyl)-2-(methylsulfonyl)pyrimidin-4-yl)-1-(4-methoxy-3-(trifluoromethyl)benzyl)pyridin-2 (1H)-one], the concentration for a half-maximal effect (EC50) is 1 to 1000 nM.
